Experiments:
ABHD6 = target: T1, ABHD6 (Mus musculus, UniProt Q8R2Y0); test: ABPP-SILAC in Neuro2A cells; settings: about 4 hours; 25 nM
T1 sequence (Q8R2Y0 1-336): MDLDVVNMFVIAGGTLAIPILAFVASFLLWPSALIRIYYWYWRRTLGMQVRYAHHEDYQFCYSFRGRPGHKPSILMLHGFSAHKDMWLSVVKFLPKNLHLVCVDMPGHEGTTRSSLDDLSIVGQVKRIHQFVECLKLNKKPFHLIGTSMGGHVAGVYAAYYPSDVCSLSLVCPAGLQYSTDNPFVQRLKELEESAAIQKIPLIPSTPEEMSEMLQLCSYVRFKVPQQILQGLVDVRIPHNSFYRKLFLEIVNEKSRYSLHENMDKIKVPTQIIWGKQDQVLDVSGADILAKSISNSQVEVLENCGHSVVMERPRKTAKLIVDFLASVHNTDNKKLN

PREPL = target: T2, PREPL (Mus musculus, UniProt Q8C167); test: ABPP-SILAM of brain tissue from treated mice; assay type: in vivo; settings: may not represent actual changes
T2 construct: from tissue; host or cells: mouse brain
Experimental: (§1) The potency and selectivity of 1,2,3-triazole ureas in vivo also was investigated. Mice were treated with the APEH inhibitor AA74-1 at various doses (0.2-1.6 mg/kg; PEG300 or 18:1:1 saline/ethanol/emulphor intraperitoneally) and sacrificed after 4 h. Brains and hearts were removed, homogenized, and analyzed by gel-based competitive ABPP. […] Finally, the possibility of extending ABPP-SILAC for the characterization of inhibitor selectivity in vivo was explored by taking advantage of recently described protocols for stable isotope labeling in mammals (SILAM). In this approach, brain tissues from vehicle- and AA74-1-treated mice were separately mixed with equivalent amounts of brain tissue from ‘heavy’ amino acid-fed mice, and the samples were then labeled with FP-biotin, enriched by avidin chromatography, analyzed by LC-MS, and SH activities quantified by measuring the ratio-of-ratios for observed peptide signals. […] The ratio-of-ratio signals for APEH indicated greater than 90% inhibition of this enzyme in AA74-1-treated animals (FIG. 5b, top), consistent with average spectral count values (14 and 1 spectral counts for APEH in vehicle-treated versus AA74-1-treated mice, respectively; FIG. 5b, bottom). […] ACHE, an enzyme that is targeted by other reported NHU inhibitors, was not inhibited by AA74-1 in either mouse brain (FIG. 5b) or transfected cell (FIG. 16) proteomes.
(§2) C57BL6 mice were labeled with ^15N. Briefly, each mouse was fed an ^15N-labeled protein diet starting immediately after weaning which continued for the next 10 weeks. The ^15N-labeled diet was generated by combining spirulina biomass ^15N-labeled (Cambridge Isotopes) with protein-free diet powder (Harlan TD 93328) in a 1:2 (wt/wt) ratio and an appropriate amount of H2O to generate a dough. This dough is then cut into 2-cm thick pellets and dried at 60° C. for 2-4 h and then at 35° C. overnight using an Excalibur food dehydrator. These ^15N-labeled food pellets are then used to replace normal chow. […] Brains were determined to be 95% labeled by mass spectrometry with ^15N and used for quantitative analysis. […]

ACHE = target: T3, ACHE (Mus musculus, UniProt P21836); test: ABPP-SILAM of brain tissue from treated mice; assay type: in vivo; settings: mouse brain proteome of treated mice
T3 construct: from tissue; host or cells: mouse brain
Experimental: as §1, §2

APEH = target: T4, APEH (Mus musculus, UniProt Q8R146); test: ABPP-SILAM of brain tissue from treated mice; assay type: in vivo; settings: treated mice (vehicle 14)
T4 sequence (Q8R146 1-732): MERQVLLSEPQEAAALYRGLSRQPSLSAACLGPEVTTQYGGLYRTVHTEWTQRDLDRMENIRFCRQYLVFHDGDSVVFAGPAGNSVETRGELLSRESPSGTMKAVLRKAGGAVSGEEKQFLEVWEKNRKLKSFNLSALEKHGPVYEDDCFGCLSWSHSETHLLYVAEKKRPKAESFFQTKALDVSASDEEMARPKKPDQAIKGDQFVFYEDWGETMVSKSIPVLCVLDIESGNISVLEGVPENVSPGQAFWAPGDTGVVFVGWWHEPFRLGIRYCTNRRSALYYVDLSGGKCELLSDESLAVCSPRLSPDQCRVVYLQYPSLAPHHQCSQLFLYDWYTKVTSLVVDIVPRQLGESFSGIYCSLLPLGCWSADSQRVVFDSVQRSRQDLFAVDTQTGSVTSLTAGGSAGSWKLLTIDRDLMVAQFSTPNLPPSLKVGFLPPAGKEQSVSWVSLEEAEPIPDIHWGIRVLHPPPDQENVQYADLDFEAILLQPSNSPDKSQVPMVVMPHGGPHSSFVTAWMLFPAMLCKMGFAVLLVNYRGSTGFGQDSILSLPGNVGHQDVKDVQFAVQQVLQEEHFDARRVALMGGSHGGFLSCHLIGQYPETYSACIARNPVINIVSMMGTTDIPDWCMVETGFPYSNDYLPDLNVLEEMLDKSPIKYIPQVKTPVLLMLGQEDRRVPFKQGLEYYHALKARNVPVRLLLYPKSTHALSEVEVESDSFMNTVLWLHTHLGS
Experimental: as §1, §2

rat APEH = target: T5, rat APEH (Rattus norvegicus, UniProt P13676); test: Competitive ABPP, soluble fraction of rat neuroblastoma (B103) cells; assay type: biochemical
T5 construct: endogenous in cells; host or cells: B103 rat neuroblastoma cells (soluble fraction)
Experimental: The soluble fractions of human ovarian (SKOV3), melanoma (C8161), and breast (MDA-MB-231) cancer cells, as well as rat neuroblastoma (B103) cells were treated with 30 nM AA74-1 or DMSO for 30 minutes at 37° C., after which the samples were analyzed by competitive ABPP. Inhibited APEH is highlighted with boxes. Note that other SHs detected in human and mouse proteomes were not inhibited by AA74-1.

peritoneal macrophages = test: LPS-stimulated TNF-alpha release (ELISA), macrophages from treated C57 BL/6 mice; assay type: in vivo, mouse; settings: 5 mg/kg, 4 hours, i.p.; LPS 5 μg/mL, 90 min
Experimental: The effects of DAGLB-inhibition on the proinflammatory response in Pla2g4a^+/+ versus Pla2g4a^−/− mice also was evaluated. Thioglycolate-elicited macrophages from C57 BL/6 mice treated with KT109 or KT195 (5 mg/kg, 4 hours, i.p.) were harvested, plated, and stimulated with lipopolysaccharide (LPS).

T3 sequence (P21836 32-614): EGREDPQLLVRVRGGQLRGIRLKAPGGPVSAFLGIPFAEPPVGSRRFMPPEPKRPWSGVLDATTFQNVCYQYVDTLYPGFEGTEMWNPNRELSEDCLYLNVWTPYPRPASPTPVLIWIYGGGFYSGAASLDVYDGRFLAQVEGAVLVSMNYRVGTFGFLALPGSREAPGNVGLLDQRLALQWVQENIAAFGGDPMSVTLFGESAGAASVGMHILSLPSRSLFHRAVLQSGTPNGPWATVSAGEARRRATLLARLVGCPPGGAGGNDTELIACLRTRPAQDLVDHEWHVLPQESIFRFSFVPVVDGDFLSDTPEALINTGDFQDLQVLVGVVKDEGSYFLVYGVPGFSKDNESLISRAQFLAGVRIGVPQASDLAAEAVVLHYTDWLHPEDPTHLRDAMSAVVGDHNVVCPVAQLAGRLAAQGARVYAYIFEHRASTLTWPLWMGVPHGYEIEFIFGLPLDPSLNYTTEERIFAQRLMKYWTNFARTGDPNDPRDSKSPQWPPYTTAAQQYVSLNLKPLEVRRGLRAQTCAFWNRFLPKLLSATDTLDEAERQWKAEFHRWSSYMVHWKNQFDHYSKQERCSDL
T5 sequence (P13676 whole entry): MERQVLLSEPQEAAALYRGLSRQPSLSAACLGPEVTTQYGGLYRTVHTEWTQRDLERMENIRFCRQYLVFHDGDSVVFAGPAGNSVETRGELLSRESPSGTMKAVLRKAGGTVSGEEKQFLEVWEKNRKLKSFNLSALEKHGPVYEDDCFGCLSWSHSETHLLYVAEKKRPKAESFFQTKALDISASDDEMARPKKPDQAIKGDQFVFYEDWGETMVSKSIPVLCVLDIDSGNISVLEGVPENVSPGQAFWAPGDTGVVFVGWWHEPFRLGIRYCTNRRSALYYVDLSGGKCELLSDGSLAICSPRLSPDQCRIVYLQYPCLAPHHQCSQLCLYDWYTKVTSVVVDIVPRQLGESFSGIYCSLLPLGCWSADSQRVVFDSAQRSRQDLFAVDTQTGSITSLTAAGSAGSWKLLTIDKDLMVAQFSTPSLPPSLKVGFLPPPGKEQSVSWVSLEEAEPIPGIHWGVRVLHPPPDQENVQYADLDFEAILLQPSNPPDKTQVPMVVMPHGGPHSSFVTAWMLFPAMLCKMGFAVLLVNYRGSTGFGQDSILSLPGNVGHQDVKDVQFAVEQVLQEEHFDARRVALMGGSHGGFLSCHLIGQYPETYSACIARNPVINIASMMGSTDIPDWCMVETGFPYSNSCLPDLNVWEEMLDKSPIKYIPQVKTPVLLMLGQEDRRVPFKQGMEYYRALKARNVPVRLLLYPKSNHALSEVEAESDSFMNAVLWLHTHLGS
T2 sequence (Q8C167 whole entry): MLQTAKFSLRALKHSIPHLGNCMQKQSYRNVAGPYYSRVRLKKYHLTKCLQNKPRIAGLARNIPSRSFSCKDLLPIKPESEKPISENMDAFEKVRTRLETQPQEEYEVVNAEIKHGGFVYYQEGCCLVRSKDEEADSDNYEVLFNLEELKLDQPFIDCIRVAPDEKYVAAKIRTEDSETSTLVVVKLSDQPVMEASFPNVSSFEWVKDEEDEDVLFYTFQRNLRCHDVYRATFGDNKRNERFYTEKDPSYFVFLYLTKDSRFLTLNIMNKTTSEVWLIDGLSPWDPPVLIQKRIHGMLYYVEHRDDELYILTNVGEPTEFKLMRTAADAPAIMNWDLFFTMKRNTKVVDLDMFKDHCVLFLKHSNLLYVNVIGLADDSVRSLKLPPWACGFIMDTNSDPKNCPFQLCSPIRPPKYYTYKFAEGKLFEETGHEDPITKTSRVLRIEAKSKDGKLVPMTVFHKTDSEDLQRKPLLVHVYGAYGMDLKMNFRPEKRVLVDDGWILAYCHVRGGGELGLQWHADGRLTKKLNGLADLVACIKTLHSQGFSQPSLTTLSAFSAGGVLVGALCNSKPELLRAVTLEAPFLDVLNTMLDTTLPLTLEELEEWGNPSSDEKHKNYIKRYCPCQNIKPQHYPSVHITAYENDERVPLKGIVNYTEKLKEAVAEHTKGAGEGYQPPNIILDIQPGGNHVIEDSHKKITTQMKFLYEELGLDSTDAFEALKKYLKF

SMILES: COc1ccc(-c2ccc(-c3cn(C(=O)N4CCCCC4c4ccccc4)nn3)cc2)cc1 (stereo not drawn) [KT195]
- ABHD6 activity blocked (ABHD6): > 90%

SMILES: CC(C)CC(O)(CC(C)C)c1cnn(C(=O)N2CCCC2)n1 [AA74-1]
- partial inhibition of PREPL suggested by ratio-of-ratio signals (PREPL): 50-60%
- ACHE inhibition in mouse brain (ACHE): not inhibited
- average spectral count for APEH (APEH): 1 spectral counts
- IC50 (rat APEH): 7 nM

SMILES: O=C(N1CCCCC1Cc1ccccc1)n1cc(-c2ccc(-c3ccccc3)cc2)nn1 (stereo not drawn) [KT109]
- secreted TNF-alpha levels (peritoneal macrophages): modest but significant reduction in secreted TNF-alpha levels

Reference: patent US9108930B2, “N1- and N2-carbamoyl-1,2,3-triazole serine hydrolase inhibitors and methods” (The Scripps Research Institute, priority 2011, dated 2015)
